Read-outs that look alike come from different tables or passages of the source.

The subject of assay [1] is glioma cells expressing HSV-TK (S6) mixed with RFP cells. The experiment in a line: Gap junction mediated cell death (bystander effect), MTT ratio A1:RFP/S6:RFP. The settings on record: added to ganciclovir and 4-PB treatment. It is filed as cell-based, Rat. As for the experimental part: Mixtures of cell dones were treated with drugs as indicated. After 96 h (grey bar), 120 h (white bar) and 168 h (black bar) MTT tests from three samples were performed. The ratios of the MTT tests from TK negative and TK positve mixtures (A1:RFP/S6:RFP) are shown.
Glioma cells with stable expression of green fluorescent protein (EGFP) and the herpes simplex virus thymidine kinase expressing gene HSV-TK in sense (S6) or in antisense (A1) were mixed with cells stably expressing the red fluorescent protein (RFP) (ratio 3:7 S6:RFP or A1:RFP). Ganciclovir, 4-phenylbutyrate and AGA were added 3 hrs after seeding the cells, except for AGA, which was added directly at seeding of cells. After 48 hours, cells were split and after 96, 120 and 168 hrs one each of the cell culture quadruplicates was used for MTT-test while one sample was employed for FACS analysis. After 144 h cells from the third of the quadruplicate were split again and the last quadruplicate sample was analyzed the following day (168 h).
Proliferation of cultured glioma cells was assessed by 3-(4,5-dimethylthiazol-2-yl)-2,5-diphenyltetrazolium bromide (MTT, Sigma) assay. […] The absorbance at 570 nm (with reference at 650 nm) was measured using a microtiter plate spectrophotometer (Anthos HT III). The results were expressed as percentage of viable cells compared to the control sample of untreated cells (100%).

Assay [2] has as its system gap junction communication between S6 and RFP cells. The experiment in a line: Fluorescent dye transfer between glioma cells (S6 to RFP). It is filed as cell-based, Rat. The settings on record: unlabeled recipient cells. The procedure: S6 and RFP cells were plated each in two separate dishes with one dish of each cell type treated either with AGA or DMSO. S6 cells of both dishes were incubated with Calcein-AM and Dil. Cells were trypsinized and 85% RFP cells were mixed with 15% S6 cells and mixtures were co-cultured in two dishes where one contained cells pretreated with AGA (right panel). After 2.5 hours cells were incubated with Hoechst nuclear stain and Calcein-AM dye transfer from S6 cells to RFP cells was monitored.
Glioblastoma cells were cultured on 35 mm petri dishes and in vitro labelled with 5 μM calcein-AM (acetomethylic ester) and 10 μM Dil (Molecular Probes) diluted in supplemented serum free medium DMEM/F12 and incubated for 30 min at 37° C. The cells were washed once with the same medium, trypsinized and suspended in the culture medium induding 10% FBS. The cells were pelleted by centrifugation at 1600 rpm for 1 minute and resuspended in fresh culture medium. The procedure was repeated twice. Following the second resuspension, the labelled cells were plated on top of unlabelled cells of the same origin. These cells were either pretreated with 4-PB at a concentration of 5 mM, or non-treated serving as a control. The labeled cells were then allowed to settle for 1 hour, followed by analyses using epifluorescence detection microscopy every 30 minutes for up to 6 hours. […]

The subject of assay [3] is U87MG cells expressing tomato thymidine kinase. The experiment in a line: Cell killing effect of AZT, XTT assay, tomato thymidine kinase transduced cells. The class given is cell-based, human. To be noted: for IC50: U87MG tomato TK. For orientation: Formazan colour is commonly taken as a measure of viable cells.
Another assay concerns U343MG cells. Briefly: XTT cytotoxicity assay of nucleoside analogues with or without phenylbutyrate pre-incubation. To be noted: for IC50: 120 hours drug exposure, combinations: 24 h pre-incubation with 3.16 mM phenylbutyrate. The class given is cell-based, human. As for the experimental part: (§1) Cells were seeded at a density of 1.000-2.000 cells/well in 96-well plates. […] Plated incubated for 24 hours (37° C., 5% CO2) where after media was discarded and replaced by media conditioned with various concentrations of nucleoside analogs (e.g. AZT), 200 μl/well. After 120 hours of drug exposure the experiments were terminated. Cell proliferation/cytotoxicity was assessed by adding the colour generating substrates of the Cell Proliferation kit II (XTT) from Roche (Cat. No. 1465015) and measuring absorbance at 450 nm and 690 nm with a Thermo Labsystems Multiscan Ascent reader. The data was corrected for background media-only absorbance where after the 50% growth inhibitory concentration—IC50 (the dose that inhibits cell growth by 50%) was calculated for each treatment. Cells were seeded at a density of 1.000-2.000 cells/well in PLL coated 96-well plates. […] Plated incubated for 24 hours (37° C., 5% CO2) where after media was discarded and replaced by media conditioned with various concentrations of nucleoside analogs; AZT (Sigma # A2169), AraC (Sigma # C6645), Cladribine (CdA) (Sigma #C4438), Gancidovir (GCV) (Sigma # G2536) and Gemcitabine (Orifarm), 200 μl/well. After 120 hours of drug exposure the experiments were terminated. Cell proliferation/cytotoxicity was assessed by adding the colour generating substrates of the Cell Proliferation kit II (XTT) from Roche (Cat. No. 1465015) and measuring absorbance at 450 nm and 690 nm with a Thermo Labsystems Multiscan Ascent reader. he data was corrected for background media-only absorbance where after the 50% growth inhibitory concentration—IC50 (the dose that inhibits cell growth by 50%) was calculated for ach treatment.

For another assay, the system named is U87MG cells. The experiment in a line: XTT cytotoxicity assay of phenylbutyrate and of nucleoside analogues with or without phenylbutyrate pre-incubation. The class given is cell-based, human. To be noted: 120 hours drug exposure; for IC50: combinations: 24 h pre-incubation with 3.16 mM phenylbutyrate, read-out: IC50 U87MG; for sensitivity increase by phenylbutyrate pre-incubation: U87MG pre-incubated 24 h with phenylbutyrate. As for the experimental part: Briefly, cells were harvested by trypsinzation, stained by Tryphan Blue for cell viability counting, seeded in triplicate in 96-well plates (1.000-2.000 cells/well) where after media conditioned with a fixed concentration of phenyl butyrate (3.16 mM) were added to the plates followed by incubation for 24 hours at 37° C. and 5% CO2. Cell proliferation/cytotoxicity was assessed by adding the colour generating substrates of the Cell Proliferation kit II (XTT) from Roche (Cat. No. 1465015) and measuring absorbance at 450 nm and 690 nm with a Thermo Labsystems Multiscan Ascent reader.
Cells were seeded at a density of 1.000-2.000 cells/well in 96-well plates. Cells were pre-incubated with 4-phenyl butyrate for 24 hours prior to drug exposure by adding media conditioned with phenyl butyrate at a fixed concentration (3.16 mM). Plated incubated for 24 hours (37° C., 5% CO2) where after media was discarded and replaced by media conditioned with various concentrations of nucleoside analogs (e.g. AZT), 200 μl/well. After 120 hours of drug exposure the experiments were terminated. Cell proliferation/cytotoxicity was assessed by adding the colour generating substrates of the Cell Proliferation kit II (XTT) from Roche (Cat. No. 1465015) and measuring absorbance at 450 nm and 690 nm with a Thermo Labsystems Multiscan Ascent reader.
The data was corrected for background media-only absorbance where after the 50% growth inhibitory concentration—IC50 (the dose that inhibits cell growth by 50%) was calculated for each treatment.
Briefly, cells were harvested by trypsinzation, stained by Tryphan Blue (Cambrex) for cell viability counting, seeded in triplicate in poly-L-lysine (PLL) (Sigma # P6282) coated 96-well plates (1.000-2.000 cells/well) where after media conditioned with a fixed concentration of phenyl butyrate (3.16 mM) was added to the plates followed by incubation for 24 hours at 37° C. and 5% CO2. Cell proliferation/cytotoxicity was assessed by adding the colour generating substrates of the
Cells were seeded at a density of 1.000-2.000 cells/well in PLL coated 96-well plates. Cells were pre-incubated with 4-phenyl butyrate for 24 hours prior to drug exposure by adding media conditioned with phenyl butyrate at a fixed concentration (3.16 mM). Plated incubated for 24 hours (37° C., 5% CO2) where after media was discarded and replaced by media conditioned with various concentrations of nucleoside analogs; AZT (Sigma # A2169), AraC (Sigma # C6645), Cladribine (CdA) (Sigma #C4438), Gancidovir (GCV) (Sigma # G2536) and Gemcitabine (Orifarm), 200 μl/well. After 120 hours of drug exposure the experiments were terminated. Cell proliferation/cytotoxicity was assessed by adding the colour generating substrates of the Cell Proliferation kit II (XTT) from Roche (Cat. No. 1465015) and measuring absorbance at 450 nm and 690 nm with a Thermo Labsystems Multiscan Ascent reader. he data was corrected for background media-only absorbance where after the 50% growth inhibitory concentration—IC50 (the dose that inhibits cell growth by 50%) was calculated for ach treatment.

The test system of a further assay is U87MG wt cells. Briefly: Cell killing effect of AZT, XTT assay, non-transduced cells. It is filed as cell-based, human. The settings on record: 120 hours. As for the experimental part:
Exponentially growing U87 wt and tomato kinase expressing cells were plated at a density of 2.000 cells/well in poly-L-lysine coated 96-well plates in 100 μl conditioned medium and incubated 37° C. in a humidified incubator with a gas phase of 5% CO2. After 24 hours, medium was replaced with medium containing varying concentrations of AZT. Hereafter, cells were exposed to drug conditioned media for 120 constitutive hours. The chemo resistance of cultured cells was monitored by the surviving cell fraction as a function of the drug concentration. Viability of cells was determined via the colorimetric XTT assay (XTT kit II—Roche, cat no. 1465015). Briefly, cell media was carefully removed and 100 μl fresh media and 50 μl XTT mix was added to each well. The absorbance at 450 and 690 nm was determined using an ELISA plate reader (Ascent, ThermoLab). The IC50 value (50% inhibition concentration) of the investigated compound was calculated as the mean value of each experiment using SigmaPlot® (Dyrberg Trading, DK).

A further assay concerns CL2:6 cells. The experiment in a line: XTT cytotoxicity assay of nucleoside analogues with or without phenylbutyrate pre-incubation. It is filed as cell-based. The settings on record: 120 hours drug exposure; for IC50: combinations: 24 h pre-incubation with 3.16 mM phenylbutyrate; for sensitivity improvement/increase by phenylbutyrate pre-incubation: CL2:6 pre-incubated 24 h with phenylbutyrate. The procedure:
as §1

The subject of assay [4] is hGBM-1, hGBM-5 and hGBM-14 glioblastoma cultures. The experiment in a line: MTT assay of cell viability and proliferation in primary glioblastoma cultures. The class given is cell-based, human. The settings on record: hGBM-1, hGBM-5, hGBM-14; 24 hours (FIG. 2). As for the experimental part:
Proliferation of cultured glioma cells was assessed by 3-(4,5-dimethylthiazol-2-yl)-2,5-diphenyltetrazolium bromide (MTT, Sigma) assay. MTT tetrazolium salt was dissolved in serum-free culture medium (0.5 mg/ml), added to the cells (150 μl/well) and incubated for 30 min at 37° C. Formazan dye, formed by viable cells, was solubilized in 300 μl of isopropanol. Aliquots (100 μl) of the solutions were transferred to 96-well microplates. The absorbance at 570 nm (with reference at 650 nm) was measured using a microtiter plate spectrophotometer (Anthos HT III). The results were expressed as percentage of viablecells compared to the control sample of untreated cells (100%).

In the case of `CC1(C)[C@@H](O)CC[C@]2(C)[C@H]3C(=O)C=C4[C@H]5C[C@@](C)(C(=O)O)CC[C@]5(C)CC[C@@]4(C)[C@]3(C)CC[C@@H]12` [AGA, 18α glycyrrhethinic acid], the “bystander killing effect upon addition of gap junction inhibitor” value in assay [1] is recorded as “reduced”. For the same molecule, the “calcein transfer from Dil-positive donor cells” value in assay [2] was “inhibited”.
As to `Cc1cn([C@H]2C[C@H](N=[N+]=[N-])[C@@H](CO)O2)c(=O)[nH]c1=O` [AZT, 3′-azido-3′-thymidine], the “sensitivity increase of tomato TK expressing U87 cells compared to wt U87MG” value in assay [3] is 500 fold. Besides, the IC50 (as a rule, the concentration needed to halve the response being measured) is 14.8 µM in assay [3] (120 hours, read-out: IC50 for tomato TK transduced cells); ~15 µM in assay [3] (read-out: IC50 measured in FIG. 15B, approximate); 56 µM in the assay with U343MG cells; 6000 µM in the assay on U87MG cells; 7430 µM in the assay with U87MG wt cells; 573 µM with CL2:6 cells. Further, the “sensitivity improvement by phenylbutyrate pre-incubation” value in the assay on U343MG cells (U343MG pre-incubated 24 h with phenylbutyrate) was 4.2 times. The “sensitivity improvement/increase by phenylbutyrate pre-incubation” value in the assay on CL2:6 cells is reported as 1.7 times.
For the molecule `Nc1ccn([C@@H]2O[C@H](CO)[C@@H](O)[C@@H]2O)c(=O)n1` [AraC, cytidine-arabinoside], in the assay with U87MG cells, the half-maximal inhibitory concentration (IC50) is 4340 µM and the “sensitivity increase by phenylbutyrate pre-incubation” value was 3.5 times.
For the molecule `Nc1nc(Cl)nc2c1ncn2[C@H]1C[C@H](O)[C@@H](CO)O1` [CdA, 2-chloro-2′-deoxyadenosine], the IC50 in the assay with U87MG cells (Homo sapiens, U-87 MG) was 5.74 µM. The “sensitivity increase by phenylbutyrate pre-incubation” value in the assay on U87MG cells is reported as 2.3 times.
For the molecule `Nc1nc(O)c2ncn(COC(CO)CO)c2n1` [GCV, 9-[2-hydroxy-1-(hydroxymethyl)ethoxyl-methyl]-guanosine], the half-maximal inhibitory concentration (IC50) in the assay on U343MG cells (Homo sapiens, U-343MG) worked out at 104 µM. In the assay on CL2:6 cells, the IC50 was 3360 µM and the “sensitivity improvement/increase by phenylbutyrate pre-incubation” value came to 1.4 times.
In the case of `Nc1ccn([C@@H]2O[C@H](CO)[C@@H](O)C2(F)F)c(=O)n1` [Gemcitabine, 2′,2′-difluorodeoxycytidine], the IC50 in the assay with U87MG cells (Homo sapiens, U-87 MG) was determined as 0.248 µM. Besides, the “sensitivity increase by phenylbutyrate pre-incubation” value in the assay on U87MG cells came out at 7.8 times.
Consider `O=C1CCc2c(ccc3ccccc23)O1` [Splitomicin, splitomicin], for which the “antiproliferative potency compared with 4-PB (MTT)” value in assay [4] is reported as “less potent”.
On the same count and under the same terms, the same measure for `CC(/C=C/C(=O)NO)=C\[C@@H](C)C(=O)c1ccc(N(C)C)cc1` [Trichostatin A]: “less potent”.
In the case of `CCCC(=O)[O-].[Na+]` [sodium butyrate], in assay [4], the “antiproliferative potency compared with 4-PB (MTT)” value is reported as “less potent”.
Consider `CCCC(CCC)C(=O)O` [valproic acid], for which the “antiproliferative potency compared with 4-PB (MTT)” value in assay [4] is on record as “less potent”.

These data come from patent US20070264241A1, “Compounds for Enhanced Cancer Therapy” (priority 2004, published 2007).
